Where two headings read alike, the source gives them in different places.
Experiments:
PICV-GFP = test: microbe, parasite or virus in culture; format: cell-based; conditions: Pichinde virus, Vero C1008, 48 h
LASV Josiah = test: microbe, parasite or virus in culture; format: cell-based, Lassa virus; conditions: Mammarenavirus lassaense, Vero C1008
[1] = test system: MLV pseudovirus bearing MARV Angola glycoprotein; test: microbe, parasite or virus in culture; format: cell-based
[2] = test system: MLV pseudovirus bearing JUNV glycoprotein; test: microbe, parasite or virus in culture; format: cell-based; conditions: Vero, 24 h
[3] = test system: MLV pseudovirus bearing LCMV glycoprotein; test: microbe, parasite or virus in culture; format: cell-based; conditions: Vero, 24 h
[4] = test system: LASV and JUNV pseudoviruses; test: organism not typed; format: cell-based
[5] = human, in vivo, cited from earlier work
[6] = test system: MLV pseudovirus bearing MARV Musoke glycoprotein; test: microbe, parasite or virus in culture; format: cell-based
EBOV and MARV = test: microbe, parasite or virus in culture; format: cell-based; conditions: Zaire ebolavirus, read-out: in vitro IC50
arenaviruses = test: organism not typed; format: cell-based; conditions: read-out: in vitro IC50
[7] = test system: MLV pseudovirus bearing PICV WT glycoprotein; test: microbe, parasite or virus in culture; format: cell-based; conditions: Vero, 24 h

| SMILES | IC50 (PICV-GFP) [µM] | IC50 (LASV Josiah) [µM] | IC50 [1] [µM] | IC50 [2] [µM] | IC50 [3] [µM] | fold reduction of IC50 of arbidol by combination [4] | IC50 ([4]; read-out: IC50 of arbidol in combination) [µM] | Cmax ([5]; po) [nM] | Cmax [5] [nM] | IC50 [6] [µM] | IC50 (EBOV and MARV) [µM] | IC50 (arenaviruses) [µM] | IC50 [7] [µM] |
| --- | --- | --- | --- | --- | --- | --- | --- | --- | --- | --- | --- | --- | --- |
| O=C(Nc1ccc([N+](=O)[O-])cc1Cl)c1cc(Cl)ccc1O [niclosamide] | < 0.2 | 0.2 | – | – | – | – | – | – | – | – | – | – | – |
| CCOC(=O)c1c(CSc2ccccc2)n(C)c2cc(Br)c(O)c(CN(C)C)c12 [arbidol] | 8.4 | 10 | 3.9 | 6.4 | 7.4 | about 2 fold | 3 to 4 | 900 to 1500 | 4000 | 3.5 | 2.7 to 3.9 | 6 to 10 | 7.4 |
| CCN(CC)Cc1cc(Nc2ccnc3cc(Cl)ccc23)ccc1O [amodiaquine] | 4.5 | – | – | – | – | – | – | – | – | – | – | – | – |
